Biological target: F508del-CFTR (Homo sapiens, UniProt P13569, DEL508-508)
Assay: HS-YFP assay on F508del-CFTR CFBE41o- cells, acute stimulation
Format: cell-based
Parameters: expressed in transfected cells
Conditions: acute stimulation in the presence of forskolin, Figure 4A
Procedure: The preliminary activity of these three hits was further evaluated in secondary screening assays. Although featuring the same common scaffold, in order to possibly discriminate the most interesting hit for further structural investigations, the compounds belonging to the family of tetrahydro-γ-carbolines were tested on more relevant cell models. First, the hits were tested on an immortalized bronchial epithelial cell line (CFBE41o-) stably expressing F508del-CFTR and HS-YFP. […]
Prior assay, cells were washed with phosphate-buffered saline (PBS) containing (in mM) 137 NaCl, 2.7 KCl, 8.1 Na2HPO4, 1.5 KH2PO4, 1 CaCl2, and 0.5 MgCl2. […] Cells were then transferred to microplate readers (FluoStar Optima; BMG Labtech, Offenburg, Germany) for CFTR activity determination. The plate readers were equipped with high-quality excitation (HQ500/20X: 500 ± 10 nm) and emission (HQ535/30M: 535 ± 15 nm) filters for YFP (Chroma Technology). The assay consisted of a continuous 14 s fluorescence reading, 2 s before and 12 s after injection of 165 μL of an iodide-containing solution (PBS with Cl^– replaced by I^–; final I^– concentration 100 mM). Data were normalized to the initial background-subtracted fluorescence. […]

Chain of F508del-CFTR (P13569 with tags, fused parts or gaps DEL508-508): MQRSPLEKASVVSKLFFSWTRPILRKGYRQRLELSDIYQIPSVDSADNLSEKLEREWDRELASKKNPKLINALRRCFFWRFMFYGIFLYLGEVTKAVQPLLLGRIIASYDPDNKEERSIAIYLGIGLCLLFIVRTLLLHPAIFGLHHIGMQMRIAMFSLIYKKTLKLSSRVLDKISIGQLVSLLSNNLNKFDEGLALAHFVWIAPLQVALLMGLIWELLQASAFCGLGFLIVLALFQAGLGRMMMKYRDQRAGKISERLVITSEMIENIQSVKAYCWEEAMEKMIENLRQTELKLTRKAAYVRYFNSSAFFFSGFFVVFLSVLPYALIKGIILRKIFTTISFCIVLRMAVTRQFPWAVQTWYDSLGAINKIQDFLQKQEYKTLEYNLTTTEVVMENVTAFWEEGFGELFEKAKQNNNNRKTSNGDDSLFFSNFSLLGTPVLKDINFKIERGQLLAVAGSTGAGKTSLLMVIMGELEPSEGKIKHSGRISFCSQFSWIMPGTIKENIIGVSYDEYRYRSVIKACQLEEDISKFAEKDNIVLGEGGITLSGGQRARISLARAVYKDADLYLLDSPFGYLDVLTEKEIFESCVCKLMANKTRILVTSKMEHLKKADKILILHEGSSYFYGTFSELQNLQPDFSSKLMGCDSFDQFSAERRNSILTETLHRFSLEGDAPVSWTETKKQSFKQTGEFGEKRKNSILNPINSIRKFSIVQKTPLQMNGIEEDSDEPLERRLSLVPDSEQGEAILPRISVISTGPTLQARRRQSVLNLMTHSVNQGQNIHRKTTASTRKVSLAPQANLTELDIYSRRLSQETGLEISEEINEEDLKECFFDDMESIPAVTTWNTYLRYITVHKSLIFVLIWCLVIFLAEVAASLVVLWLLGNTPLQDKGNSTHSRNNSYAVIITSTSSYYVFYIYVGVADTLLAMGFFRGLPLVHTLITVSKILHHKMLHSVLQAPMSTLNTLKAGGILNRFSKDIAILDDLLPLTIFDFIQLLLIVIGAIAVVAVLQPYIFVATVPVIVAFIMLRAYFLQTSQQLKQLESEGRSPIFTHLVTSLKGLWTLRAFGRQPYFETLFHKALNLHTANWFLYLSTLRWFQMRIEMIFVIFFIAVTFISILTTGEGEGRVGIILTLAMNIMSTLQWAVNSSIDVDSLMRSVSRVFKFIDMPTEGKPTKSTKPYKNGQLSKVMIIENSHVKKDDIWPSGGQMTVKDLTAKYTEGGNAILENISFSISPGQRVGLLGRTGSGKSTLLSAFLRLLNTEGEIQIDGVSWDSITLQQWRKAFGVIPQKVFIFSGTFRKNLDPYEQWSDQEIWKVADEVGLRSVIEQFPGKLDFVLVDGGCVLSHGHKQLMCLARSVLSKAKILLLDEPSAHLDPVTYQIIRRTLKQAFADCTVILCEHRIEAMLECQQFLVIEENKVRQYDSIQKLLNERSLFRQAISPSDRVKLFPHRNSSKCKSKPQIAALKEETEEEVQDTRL

Compound: COc1ccc2[nH]c3c(c2c1)CN(C(=O)c1cc(C(F)(F)F)[nH]n1)CC3 [Compound 3, (8-Methoxy-1,3,4,5-tetrahydropyrido[4,3-b]indol-2-yl)-[5-(trifluoromethyl)-1H-pyrazol-3-yl]methanone]
- dose-dependent activation of mutant CFTR: the most effective
